Results reported in article PMC3581469, “Bombesin Analogue-Mediated Delivery Preferentially Enhances the Cytotoxicity of a Mitochondria-Disrupting Peptide in Tumor Cells” (PLoS ONE, 2013).
Where no end group is shown, it is not given here.

Legend:
DU145 and PC-3 cells = assay: Cytotoxicity assay (CCK-8 cell viability); format: cell-based, human; details: 1 h; for cytotoxicity (in words): increasing concentrations, CCK-8
Procedure: (§1) Cells were seeded at a density of 1×10^4 per well in a 96-well plate, were grown overnight and were co-incubated at 37°C for 1 h with increasing concentrations of the peptide in 100 µl RPMI 1640 supplemented with 2% FBS. Subsequently, the peptide solution was replaced by 100 µl fresh medium. To determine cell viability, 10 µl CCK-8 was added to the well, and the cultures were incubated for an additional 2–4 h. The absorbance was then measured at 450 nm (with a reference wavelength at 620 nm), and cell viability was calculated as the percentage of the value relative to the absorbance of the cells incubated without peptide. The IC50 values of the peptides were calculated from the respective cell viability curves. Simultaneously, the LIVE/DEAD BacLight bacterial viability kit was used to visualize the cytotoxicity of the peptides. Combined incubation with SYTO 9 (15 µM) and propidium iodide (PI, 2.5 µg/ml) stained the living cells fluorescent green and the dead cells fluorescent red due to their distinct cell membrane permeability.

DU145 cells [1] = assay: FITC-Annexin V/PI staining, FACS analysis of apoptosis and necrosis; format: cell-based, human
Procedure: Phosphatidylserine exposed on the outer membrane reflects the early stages of apoptosis and can be detected by FITC-Annexin V and PI staining. The cells were detached and washed with medium. One-hundred and fifty thousand cells were suspended in 300 µl of RMPI 1640 supplemented with 10% FBS and treated with the peptide at the indicated concentration and time points. Then, the cells were subjected to dual staining with FITC-Annexin V and PI, according to the manual. The cells were observed under a fluorescence microscope and subjected to FACS analysis. Cells showing Annexin V−/PI-, Annexin V+/PI-, and Annexin V+/PI+ signals are considered to be living, early stage apoptotic, and either late stage apoptotic or necrotic, respectively. To assess DNA damage during apoptosis, the TUNEL assay was performed in accordance with the manufacturer’s instruction. Briefly, after treatment for 30 min-1 h with the peptide, cells were washed twice with PBS, fixed with 4% paraformaldehyde for 10–15 min at room temperature, permeabilized with 0.1% Triton X-100 for 2 min on ice, incubated in the reaction mixture and observed under a fluorescence microscope. FITC labeled nucleotides incorporated into the nuclei reflects DNA degradation. For investigating the activation of caspases, cells were preincubated with the Pan-caspase inhibitor, Z-VAD-FMK (100 µM), for 2 h before peptide treatment in the cytotoxicity assay. Immunofluorescence staining of caspase-3 was performed by using the Alexa Fluor 488-conjugated antibody against human cleaved caspase-3. The activation of caspase-3 was further verified by using a caspase-3 colorimetric assay kit (Genescript, Nanjing, China) with TNF-related apoptosis-inducing ligand (TRAIL) as a positive control. The activity of caspase-3 was presented as fold of peptide-treated cells vs untreated cells.

DU145 tumor cells = assay: Live/Dead staining with SYTO 9 and PI; format: cell-based, human; details: 5 µM, 45 min, SYTO 9/PI
Procedure: as §1

DU145 cells [2] = assay: LDH release (Cytotox 96 non-radioactive cytotoxicity assay), necrosis; format: cell-based, human; details: 5 µM, 1 h
Procedure: Necrosis was evaluated with the Cytotox 96 non-radioactive cytotoxicity assay kit by detecting the release of lactate dehydrogenase (LDH) from necrotic cells. Ten-thousand cells were plated in a 96-well plate and treated with the peptide in 100 µl of RMPI 1640 supplemented with 2% FBS for 10 min-2 h, followed by LDH detection with 50 µl of culture supernatant from the treated cells, according to the manufacturer’s instruction. The LDH level was presented as the percentage relative to that of cells treated with 0.9% Triton X-100.

[3] = test system: tumor cells (PC-3, DU145, MCF-7, MDA-MB-435S); format: cell-based, human
Procedure: as §1

[4] = test system: normal cells (HSF, PrSC, SMC, MRC-5); format: cell-based, human; details: 1 h
Procedure: as §1

liver and kidney = details: mouse, in vivo, ip, 15 mg/kg
Procedure: (§2) All of the protocols used for in vivo experiments were approved by the University Animal Care and Use Committee. Four to six-week-old male BALB/c nu/nu mice were purchased from the University Animal Production Center. Seven million DU145 cells suspended in 200 µl PBS were subcutaneously injected into the left flank region of mice. On day 7–9 post inoculation, the mice were randomized into three groups (n = 5) and intraperitoneally (i.p.) received 15 mg/kg B28Bn(6–14), B28 or an equivalent volume of PBS once daily for 7 consecutive days. Alternatively, the mice intratumorally received 5 mg/kg drug once daily for 5 consecutive days. The tumor volume was calculated as length×width^2×0.5. At the end of i.p. therapy, the animals were sacrificed and the major organs were excised, paraffin-embedded, sectioned, and stained with hematoxylin/eosin (H&E) for the examination of histopathologic architecture. To evaluate the cytotoxicity on tumor cells in vivo, a single dose of 50 µg of peptide in 50 µl of PBS was injected into the tumor graft (200–300 mm^3), according to the method described previously. At 24 h post-injection, the animals were sacrificed, and the tumor tissues were routinely stained with H&E.

DU145 tumor xenografts = assay: DU145 tumor xenograft model in BALB/c nude mice; format: in vivo, mouse
Procedure: as §2

## CSCC[C@H](NC(=O)[C@H](CC(C)C)NC(=O)[C@H](Cc1c[nH]cn1)NC(=O)CNC(=O)[C@@H](NC(=O)[C@H](C)NC(=O)[C@H](Cc1c[nH]c2ccccc12)NC(=O)[C@H](CCC(N)=O)NC(=O)[C@@H](N)CC(N)=O)C(C)C)C(N)=O [Bn(6–14), reference compound]
DU145 and PC-3 cells
  cytotoxicity (in words): no obvious cytotoxicity

## GGLRSLGRKILRAWKKYGNQWAVGHLM-NH2 [B28Bn(6–14)]
DU145 cells [1]; 2.5 µM, 10 min, 0 µM 0.24
  Annexin V+/PI+ cells (necrotic): 1.94%
DU145 cells [1]; 2.5 µM, 10 min, 0 µM 3.80
  early apoptotic cells (Annexin V+/PI-): 18.05%
DU145 cells [1]; 5 µM, 1 min
  Annexin V+/PI+ cells (necrotic): 8.84%
DU145 cells [1]; 5 µM, 1 min, 0 min 3.63
  early apoptotic cells (Annexin V+/PI-): 36.99%
DU145 cells [1]; 5 µM, 5 min
  Annexin V+/PI+ cells (necrotic): 16.25%
  early apoptotic cells (Annexin V+/PI-): 32.94%
DU145 cells [1]; 5 µM, 10 min
  Annexin V+/PI+ cells (necrotic): 15.30%
  early apoptotic cells (Annexin V+/PI-): 39.19%
DU145 cells [1]; 5 µM, 15 min
  Annexin V+/PI+ cells (necrotic): 36.88%
  early apoptotic cells (Annexin V+/PI-): 35.36%
DU145 cells [1]; 10 µM, 10 min
  Annexin V+/PI+ cells (necrotic): 29.93%
  early apoptotic cells (Annexin V+/PI-): 43.18%
DU145 tumor cells
  dead cells (red fluorescence): over 90%
DU145 cells [2]
  necrotic cells detected by LDH assay (percentage of max release with 0.9% Triton X-100): less than 10%
[3]; 10 µM, 1 h, CCK-8
  loss of cell viability: over 90%
[3]; 1 h
  IC50: 1.7 to 3.5 µM
[3]; IC50 ratio versus unconjugated B28
  IC50 in tumor cells, times lower than B28: approximately 10 times
[4]
  IC50: 10.8 to 16.8 µM
Liver and kidney
  histological damage in liver and kidneys: no obvious histological damage
DU145 tumor xenografts; intraperitoneal 15 mg/kg once daily for 7 days, day 30, n = 5, mean±SD, PBS 421±87
  mean tumor volume: 179±42 mm^3
DU145 tumor xenografts; intratumoral 5 mg/kg once daily for 5 days, day 45, n = 5, mean±SD, PBS 1344±286
  mean tumor volume: 225±124 mm^3

## GGLRSLGRKILRAWKKYGQRLGNQ-NH2 [B28Bn(2–7)]
DU145 and PC-3 cells; 10 µM peptide, CCK-8, RPMI 1640 with 2% FBS
  cytotoxicity / loss of cell viability: less than 40%
DU145 and PC-3 cells
  cytotoxicity (in words): moderate cytotoxicity
